The source of these data is ChEMBL document CHEMBL1131275, “Synthesis and structure-activity relationships of CP-122,721, a second-generation NK-1 receptor antagonist” (Bioorg Med Chem Lett, 1998).

For experiment [1], the species on record is Cavia porcellus. Briefly: Compound tested for blockade of cisplatin-induced emesis in guinea pig perorally. In kind it is functional. Particulars: po, read-out: ID50 (the source's name).
The species entered for experiment [2] is Cavia porcellus. Briefly: Compound tested for SP-induced plasma extravasation in guinea pig perorally. In kind it is functional. The conditions noted are these: po, read-out: ID50 (the source's name).
In experiment [3] the test system is Cavia porcellus. Briefly: Compound was tested for blockade of locomotor activity in guinea pig, elicited by icv administered Sar9Met(O2)-SP. The conditions noted are these: central, read-out: ID50 (the source's name). In kind it is functional.
Experiment [4] is filed under the species Cavia porcellus. Put plainly: Inhibition of aerosolized capsaicin-induced plasma protein extravasation in guinea pig lung by peroral dose. Particulars: read-out: ID50 (the source's name). Format: functional.
The species named for experiment [5] is Cavia porcellus. Put plainly: Inhibition of capsaicin-induced plasma extravasation in guinea pig ureter by peroral dose. In kind it is functional. The conditions noted are these: po, read-out: ID50 (the source's name).
A further experiment has as its target Substance-P receptor (Homo sapiens, UniProt P25103). Briefly: Antagonist activity for Tachykinin receptor 1 as displacement of [3H]-Substance P in human IM-9 cells. In kind it is functional, cell-based. In general terms: Displacement assays read how much labelled ligand stays bound in the presence of the test substance.
The subject of experiment [6] is Cavia porcellus. Put plainly: Compound was tested for blockade of locomotor activity in the guinea pig elicited by icv administered Sar9Met(O2)-SP. Format: functional. The conditions noted are these: central, read-out: ID50 (the source's name).
Experiment [7] is filed under the species Cavia porcellus. Put plainly: Inhibition of aerosolized capsaicin-induced plasma protein extravasation in guinea pig ureter by peroral dose. In kind it is functional. The conditions noted are these: read-out: ID50 (the source's name).

Chain of Substance-P receptor (P25103 whole entry): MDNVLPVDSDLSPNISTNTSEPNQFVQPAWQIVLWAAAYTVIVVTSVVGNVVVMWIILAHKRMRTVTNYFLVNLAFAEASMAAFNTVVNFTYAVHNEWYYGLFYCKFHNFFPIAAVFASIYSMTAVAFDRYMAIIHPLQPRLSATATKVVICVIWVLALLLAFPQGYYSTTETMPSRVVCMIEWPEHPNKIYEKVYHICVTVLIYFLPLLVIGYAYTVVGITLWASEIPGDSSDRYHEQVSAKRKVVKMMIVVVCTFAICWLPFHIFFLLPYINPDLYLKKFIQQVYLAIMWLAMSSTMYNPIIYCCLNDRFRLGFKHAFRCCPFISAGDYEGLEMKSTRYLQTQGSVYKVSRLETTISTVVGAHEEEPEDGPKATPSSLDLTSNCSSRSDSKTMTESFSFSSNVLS

Consider `COc1ccc(OC(F)(F)F)cc1CN[C@H]1CCCN[C@H]1c1ccccc1`, for which the ED50 in the experiment listed under Cavia porcellus [1] worked out at 0.08 mg/kg; in the experiment listed under Cavia porcellus [2], 0.05 mg/kg; in the experiment with Cavia porcellus [3], 0.01 mg/kg; in the experiment filed under Cavia porcellus [4], 0.01 mg/kg; in the experiment filed under Cavia porcellus [5] it was 0.02 mg/kg.
Consider `CC(C)Oc1ccc(OC(F)(F)F)cc1CN[C@H]1CCCN[C@H]1c1ccccc1`, for which the IC50 – broadly, the concentration needed to halve the response being measured – at Substance-P receptor turned out to be 0.18 nM.
Still for that read-out and setting: the figure for `FC(F)(F)Oc1ccccc1CN[C@H]1CCCN[C@H]1c1ccccc1` is 0.8 nM.
Regarding `Oc1ccc(OC(F)(F)F)cc1CN[C@H]1CCCN[C@H]1c1ccccc1`, the half-inhibitory concentration (IC50) at Substance-P receptor came to 10.9 nM.
Compound `COc1ccc(N(C)S(C)(=O)=O)cc1CN[C@H]1CCCN[C@H]1c1ccccc1` came in with an IC50 at Substance-P receptor of 0.11 nM.
Same read-out and setting: in the case of `COc1ccc(Cl)cc1CN[C@H]1CCCN[C@H]1c1ccccc1` it was 0.14 nM; in that of `CCOc1ccc(OC(F)(F)F)cc1CN[C@H]1CCCN[C@H]1c1ccccc1`, 0.14 nM.
Still for that read-out and setting: the figure for `COc1ccc(OC)c(CN[C@H]2CCCN[C@H]2c2ccccc2)c1` is 0.09 nM; for `CC(C)Oc1ccccc1CN[C@H]1CCCN[C@H]1c1ccccc1` it is 0.46 nM; for `FC(F)Oc1ccccc1CN[C@H]1CCCN[C@H]1c1ccccc1` it is 0.41 nM.
On the same count and under the same terms, the figure for `COc1ccc(N(C)C)cc1CN[C@H]1CCCN[C@H]1c1ccccc1` is 0.56 nM.
Turning to `COc1ccccc1CN[C@H]1CCCN[C@H]1c1ccccc1` [CP-99994], the ED50 in the experiment on Cavia porcellus [6] was 0.6 mg/kg; in the experiment filed under Cavia porcellus [2], 31 mg/kg; in the experiment filed under Cavia porcellus [7] it was 2.9 mg/kg; in the experiment filed under Cavia porcellus [4] it was 5 mg/kg.
